Data taken from the NIST ThermoML archive (doi:10.1016/j.jct.2011.07.002).

Experiments:
[1] = mn = molality of the nth substance listed, in mol/kg; conditions: 101 kPa, Liquid; for mass density: Vibrating tube method
[2] = molar heat capacity at constant pressure; mn = molality of the nth substance listed, in mol/kg; conditions: 298.15 K, 101 kPa, Liquid, Flow calorimetry

Cc1cn([C@H]2CC(O)[C@@H](CO)O2)c(=O)[nH]c1=O (stereo not given in full) [thymidine] + O
[1]
Conditions	mass density [kg/m3]	speed of sound [m/s]
288.15 K, m1 = 0.02897	1001.3	–
288.15 K, m1 = 0.04107	1002.22	–
288.15 K, m1 = 0.05418	1003.2	–
288.15 K, m1 = 0.06905	1004.3	–
288.15 K, m1 = 0.08071	1005.18	–
288.15 K, m1 = 0.0935	1006.13	–
288.15 K, m1 = 0.1077	1007.17	–
288.15 K, m1 = 0.122	1008.22	–
288.15 K, m1 = 0.1336	1009.07	–
298.15 K, m1 = 0.02049	998.571	1498.1
298.15 K, m1 = 0.03005	999.279	1498.8
298.15 K, m1 = 0.03798	999.866	1499.4
298.15 K, m1 = 0.04153	1000.13	1499.6
298.15 K, m1 = 0.04752	1000.57	1500
298.15 K, m1 = 0.05597	1001.19	1500.6
298.15 K, m1 = 0.06455	1001.82	1501.2
298.15 K, m1 = 0.0743	1002.53	1501.9
298.15 K, m1 = 0.08286	1003.15	1502.4
298.15 K, m1 = 0.09266	1003.86	1503.1
303.15 K, m1 = 0.02802	997.714	–
303.15 K, m1 = 0.03767	998.422	–
303.15 K, m1 = 0.04737	999.127	–
303.15 K, m1 = 0.05795	999.898	–
303.15 K, m1 = 0.06905	1000.7	–
303.15 K, m1 = 0.08175	1001.62	–
303.15 K, m1 = 0.09431	1002.52	–
303.15 K, m1 = 0.1077	1003.49	–
303.15 K, m1 = 0.1198	1004.35	–
313.15 K, m1 = 0.03767	994.944	–
313.15 K, m1 = 0.04737	995.64	–
313.15 K, m1 = 0.05795	996.397	–
313.15 K, m1 = 0.0689	997.176	–
313.15 K, m1 = 0.08175	998.094	–
313.15 K, m1 = 0.09431	998.979	–
313.15 K, m1 = 0.1079	999.926	–
313.15 K, m1 = 0.1198	1000.77	–

[2]
Conditions	molar heat capacity at constant pressure [J/K/mol]
m1 = 0.02897	450.9
m1 = 0.04107	449.7
m1 = 0.05418	447.6
m1 = 0.06918	452.8
m1 = 0.08071	452
m1 = 0.0935	452.9
m1 = 0.1078	453.3
m1 = 0.122	453.8
m1 = 0.1336	455.5
